Results reported in patent US9873702B2, “Heterocyclic compounds as biogenic amine transport modulators” (Southern Research Institute, priority 2014, dated 2018).
Read-outs that look alike come from different tables or passages of the source.

How the values were obtained:
[1] = biological target: dopamine transporter (DAT) (Rattus norvegicus, UniProt P23977); assay: Dopamine reuptake ([^3H]dopamine uptake) inhibition in rat brain synaptosomes; details: for Emax: read-out: DA Uptake Emax (% I ± SD)
[2] = DA Uptake EC50 (nM ± SD), rat caudate synaptosomes, 5 nM [^3H]dopamine, 15 min, 25° C., three experiments pooled

dopamine transporter (DAT), sequence (P23977 whole entry): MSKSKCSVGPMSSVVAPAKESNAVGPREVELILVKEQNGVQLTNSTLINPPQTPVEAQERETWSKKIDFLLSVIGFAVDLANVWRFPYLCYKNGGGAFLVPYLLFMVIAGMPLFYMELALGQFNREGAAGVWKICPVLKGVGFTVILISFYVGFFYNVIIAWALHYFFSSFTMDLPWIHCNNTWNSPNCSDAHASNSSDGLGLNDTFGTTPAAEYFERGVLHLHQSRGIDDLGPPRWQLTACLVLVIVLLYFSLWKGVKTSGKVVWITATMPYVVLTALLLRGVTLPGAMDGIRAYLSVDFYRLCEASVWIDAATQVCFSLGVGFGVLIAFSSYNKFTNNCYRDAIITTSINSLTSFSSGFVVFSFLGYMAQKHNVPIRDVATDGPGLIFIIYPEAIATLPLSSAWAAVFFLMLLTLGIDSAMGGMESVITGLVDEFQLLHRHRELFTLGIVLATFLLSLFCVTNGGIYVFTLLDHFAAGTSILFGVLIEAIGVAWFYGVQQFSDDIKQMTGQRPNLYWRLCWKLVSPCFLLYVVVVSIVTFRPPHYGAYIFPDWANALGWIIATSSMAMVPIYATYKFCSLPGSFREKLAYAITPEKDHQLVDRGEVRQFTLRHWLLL

SMILES	IC50 [1, 2] [nM]	Emax [1] [%]	melting point [°C]	IC50 [1] [nM]
Cc1cc2nccn2cc1-c1nc(NCC(c2ccncc2)c2ccncc2)c2ccccc2n1 [compound 157, N-(2,2-Di(Pyridin-4-yl)Ethyl)-2-(7-Methylimidazo[1,2-A]Pyridin-6-yl)Quinazolin-4-Amine]	15 ± 3	74 ± 2	170 to 175	–
c1ccc(C(Nc2nc(-c3ccc4nccn4c3)nc3ccccc23)c2ccccc2)cc1 [compound 86, N-Benzhydryl-2-(Imidazo[1,2-A]Pyridin-6-yl)Quinazolin-4-Amine]	55 ± 6	70 ± 1	258	–
c1ccc(C(CNc2nc(-c3cnc(N4CCCCC4)nc3)nc3ccccc23)c2ccccc2)cc1 [compound 38, N-(2,2-Diphenylethyl)-2-(2-(Piperidin-1-yl)Pyrimidin-5-yl)Quinazolin-4-Amine]	1420	100	92	–
Cc1nc(C)c(-c2nc(NCC(c3ccccc3)c3ccccc3)c3ccccc3n2)s1 [compound 54, 2-(2,4-Dimethylthiazol-5-yl)-N-(2,2-Diphenylethyl)Quinazolin-4-Amine]	72 ± 12	80 ± 2	78	–
c1ccc(C2CN(c3nc(-c4ccc5nccn5c4)nc4ccccc34)Cc3ccccc32)cc1 (stereo not drawn) [compound 135, 2-(Imidazo[1,2-A]Pyridin-6-yl)-4-(4-Phenyl-3,4-Dihydroisoquinolin-2(1H)-yl)Quinazoline]	1490 ± 342	70 ± 4	107 to 109	–
c1ccc(C(CNc2nc(N3CCc4c([nH]c5ccccc45)C3)nc3ccccc23)c2ccccc2)cc1 [compound 190, 2-(3,4-Dihydro-1H-Pyrido[3,4-B]Indol-2(9H)-yl)-N-(2,2-Diphenylethyl)Quinazolin-4-Amine]	6.9 ± 2	80 ± 3	185 to 187	–
c1ccc(C(CNc2nc(-c3ccc4nccn4c3)nc3ccccc23)N2CCCCC2)cc1 (stereo not drawn) [compound 119, 2-(Imidazo[1,2-A]Pyridin-6-yl)-N-(2-Phenyl-2-(Piperidin-1-yl)Ethyl)Quinazolin-4-Amine]	117 ± 35	83 ± 5	193 to 195	–
c1ccc(C(CNc2nc(-c3ccc4cc[nH]c4c3)nc3ccccc23)c2ccccc2)cc1 [compound 31, N-(2,2-Diphenylethyl)-2-(1H-indol-6-yl)Quinazolin-4-Amine]	89 ± 23	81 ± 4	102	–
CC(C)C(CNc1nc(N2CCc3[nH]ccc3C2)nc2ccccc12)c1ccccc1 (stereo not drawn) [compound 201, 2-(6,7-Dihydro-1H-Pyrrolo[3,2-c]Pyridin-5(4H)-yl)-N-(3-Methyl-2-Phenylbutyl)Quinazolin-4-Amine]	7.2 ± 2.6	88 ± 5	221 to 223	–
Cc1cc2nccn2cc1-c1nc(NC(Cc2ccccc2)c2ccccc2)c2ccccc2n1 (stereo not drawn) [compound 172, N-(1,2-Diphenylethyl)-2-(7-Methylimidazo[1,2-A]Pyridin-6-yl)Quinazolin-4-Amine]	5 ± 1.1	76 ± 2	87 to 89	–
c1ccc(C(CNc2nc(-c3ccc4ncccc4c3)nc3ccccc23)c2ccccc2)cc1 [compound 50, N-(2,2-Diphenylethyl)-2-(Quinolin-6-yl)Quinazolin-4-Amine]	26 ± 7	68 ± 3	92	–
Nc1ncc(-c2nc(NCC(O)(c3ccccc3)c3ccccc3)c3ccccc3n2)cn1 [compound 97, 2-((2-(2-Aminopyrimidin-5-yl)Quinazolin-4-yl)Amino)-1,1-Diphenylethanol]	665 ± 150	90 ± 5	222	–
c1ccc(C(CNc2nc(N3CCc4[nH]c5ccccc5c4C3)nc3ccccc23)c2ccccc2)cc1 [compound 191, 2-(3,4-Dihydro-1H-Pyrido[4,3-B]Indol-2(5H)-yl)-N-(2,2-Diphenylethyl)Quinazolin-4-Amine]	16 ± 3	78 ± 2	258 to 260	–
c1ccc(C(CNc2nc(-c3ccc4nncn4c3)nc3ccccc23)c2ccccc2)cc1 [compound 114, 2-([1,2,4]Triazolo[4,3-A]Pyridin-6-yl)-N-(2,2-Diphenylethyl)Quinazolin-4-amine]	67 ± 7	68 ± 1	224	–
c1ccc(C(CNc2nc(-n3cnc4cncnc43)nc3ccccc23)c2ccccc2)cc1 [compound 90, N-(2,2-Diphenylethyl)-2-(9H-Purin-9-yl)Quinazolin-4-Amine]	94 ± 10	75 ± 2	264	–
c1ccc(C(CNc2nc(-c3ccc4cnccc4c3)nc3ccccc23)c2ccccc2)cc1 [compound 133, N-(2,2-Diphenylethyl)-2-(Isoquinolin-6-yl)Quinazolin-4-Amine]	194 ± 30	70 ± 2	242 to 244	–

SMILES	IC50 [1, 2] [nM]	Emax [1] [%]	melting point [°C]	IC50 [1] [nM]
Cc1cc2nccn2cc1-c1nc(NCC(C)(c2ccccc2)c2ccccc2)c2ccccc2n1 [compound 178, N-(2,2-Diphenylpropyl)-2-(7-Methylimidazo[1,2-A]Pyridin-6-yl)Quinazolin-4-Amine]	5 ± 1.1	76 ± 3	275 to 277	–
c1ccc(C(CNc2nc(-c3cccc4ncccc34)nc3ccccc23)c2ccccc2)cc1 [compound 49, N-(2,2-Diphenylethyl)-2-(Quinolin-5-yl)Quinazolin-4-Amine]	130 ± 16	73 ± 2	207	–
c1ccc(C(CNc2nc(-n3ccnc3)nc3ccccc23)c2ccccc2)cc1 [compound 48, N-(2,2-Diphenylethyl)-2-(1H-Imidazol-1-yl)Quinazolin-4-Amine]	38 ± 5	73 ± 2	231	–
COc1ccc(C(CNc2nc(-c3ccc4nccn4c3)nc3ccccc23)C2(O)CCCCC2)cc1 (stereo not drawn) [compound 153, 1-(2-((2-(Imidazo[1,2-A]Pyridin-6-yl)Quinazolin-4-yl)Amino)-1-(4-Methoxyphenyl)ethyl)Cyclohexanol]	41 ± 8	70 ± 2	247 to 249	–
Cn1ccc2cc(-c3nc(NCC(c4ccccc4)c4cccnc4)c4ccccc4n3)ccc21 (stereo not drawn) [compound 137, 2-(1-Methyl-1H-Indol-5-yl)-N-(2-Phenyl-2-(Pyridin-3-yl)Ethyl)Quinazolin-4-Amine]	44 ± 8	76 ± 2	91 to 93	–
CCC(CNc1nc(-c2cn3ccnc3cc2C)nc2ccccc12)c1ccccc1 (stereo not drawn) [compound 188, 2-(7-Methylimidazo[1,2-A]Pyridin-6-yl)-N-(2-Phenylbutyl)Quinazolin-4-Amine]	1.4 ± 0.2	75 ± 2	232 to 234	–
COC(CNc1nc(-c2cn3ccnc3cc2C)nc2ccccc12)c1ccccc1 (stereo not drawn) [compound 187, N-(2-Methoxy-2-phenylethyl)-2-(7-methylimidazo[1,2-a]pyridin-6-yl)quinazolin-4-amine]	5.7 ± 1.6	74 ± 3	215 to 218	–
c1ccc(C(CNc2nc(-c3ccc4nccnc4c3)nc3ccccc23)c2ccccc2)cc1 [compound 56, N-(2,2-Diphenylethyl)-2-(Quinoxalin-6-yl)Quinazolin-4-Amine]	89 ± 13	70 ± 2	198	–
c1ccc(CCNc2nc(N3CCc4[nH]ccc4C3)nc3ccccc23)cc1 [compound 202, 2-(6,7-Dihydro-1H-Pyrrolo[3,2-c]Pyridin-5(4H)-yl)-N-Phenethylquinazolin-4-Amine]	94 ± 18	100 ± 3	161 to 163	–
CC(C)(C)OC(=O)N[C@H](CNc1nc(-c2ccc3nccn3c2)nc2ccccc12)c1ccccc1 [compound 146, (S)-Tert-Butyl (2-((2-(Imidazo[1,2-A]Pyridin-6-yl)Quinazolin-4-yl)Amino)-1-Phenylethyl)Carbamate]	414 ± 44	65 ± 1	252 to 254	–
Oc1nc2cc(-c3nc(NCC(c4ccccc4)c4ccccc4)c4ccccc4n3)ccc2[nH]1 [compound 79, 5-(4-((2,2-Diphenylethyl)Amino)Quinazolin-2-yl)-1H-Benzo[D]Imidazol-2-ol]	51 ± 14	94 ± 4	215	–
COc1cc2nc(-c3cncnc3)nc(NCC(c3ccccc3)c3ccccc3)c2cc1OC [compound 25, N-(2,2-Diphenylethyl)-6,7-Dimethoxy-2-(Pyrimidin-5-yl)Quinazolin-4-Amine]	1090	< 100	93	–
CC(C)(C)OC(=O)Nc1ncc(-c2nc(NCC(c3ccccc3)c3ccccc3)c3ccccc3n2)cn1 [compound 43, Tert-Butyl (5-(4-((2,2-Diphenylethyl)Amino)Quinazolin-2-yl)Pyrimidin-2-yl)Carbamate]	1890	< 100	189	–
CN(C)c1ccc(-c2nc(NC(c3ccccc3)c3ccccc3)c3ccccc3n2)cn1 [compound 92, N-Benzhydryl-2-(6-(Dimethylamino)Pyridin-3-yl)Quinazolin-4-Amine]	34 ± 5	68 ± 2	207	–
Cl.c1ccc(C(CNc2nc(-c3ccc4nccn4c3)nc3cc(OCCCN4CCOCC4)ccc23)c2ccccc2)cc1 [compound 125, N-(2,2-Diphenylethyl)-2-(Imidazo[1,2-A]Pyridin-6-yl)-7-(3-Morpholinopropoxy)Quinazolin-4-Amine Hydrochloride]	–	52 ± 3	232	75 ± 25
CC(C)C(CNc1nc(-c2ccc3nccn3c2)nc2ccccc12)c1ccccc1 (stereo not drawn) [compound 168, 2-(Imidazo[1,2-A]Pyridin-6-yl)-N-(3-Methyl-2-Phenylbutyl)Quinazolin-4-Amine]	24 ± 5	75 ± 2	195 to 196	–
